Source: PubChem BioAssay (NCI)
Values joined by “and” are separate entries in the source; they are usually repeats but may differ in a detail not shown here. Identical values can stand only once.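 1) Cells in 96-well plates. 2) Compound, 48 h, 5 concentrations. 3) Linear interpolation between surrounding doses. 4) Unreached endpoint = highest concentration. The concentration for 50% growth inhibition is given as GI50. TGI: total growth inhibition.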

Columns and labels:
Assay in all cases: NCI anticancer screen, dose series, 48 h
SF-268 CNS = system: SF-268 CNS
LXFL 529 NSCLC = system: LXFL 529 NSCLC
SW-620 colon = system: SW-620 colon
KM12 colon = system: KM12 colon
DMS 273 small cell lung = system: DMS 273 small cell lung
NCI-H522 lung = system: NCI-H522 lung
U251 CNS = system: U251 CNS
SF-295 CNS = system: SF-295 CNS
HT29 colon = system: HT29 colon
PC-3 prostate = system: PC-3 prostate

| Structure (SMILES) | TGI (SF-268 CNS) | TGI (LXFL 529 NSCLC) | TGI (SW-620 colon) | TGI (KM12 colon) | TGI (DMS 273 small cell lung) | TGI (NCI-H522 lung) | TGI (U251 CNS) | GI50 (SF-268 CNS) | GI50 (LXFL 529 NSCLC) | GI50 (SF-295 CNS) | TGI (SF-295 CNS) | GI50 (SW-620 colon) | GI50 (KM12 colon) | GI50 (DMS 273 small cell lung) | GI50 (HT29 colon) | TGI (HT29 colon) | GI50 (NCI-H522 lung) | GI50 (U251 CNS) | GI50 (PC-3 prostate) | TGI (PC-3 prostate) |
| --- | --- | --- | --- | --- | --- | --- | --- | --- | --- | --- | --- | --- | --- | --- | --- | --- | --- | --- | --- | --- |
| O=C1C2C3CC4C5C3C1C5C1(SCCS1)C42 (stereo not drawn) | > 100 µM | > 100 µM | > 100 µM | > 100 µM | > 100 µM | > 100 µM | > 100 µM |  |  |  |  |  |  |  |  |  |  |  |  |  |
| CN(C)CCC(N)(P(=O)([O-])[O-])P(=O)([O-])[O-].N.N.[Pt+2] | > 100 µM | > 100 µM | > 100 µM | > 100 µM | > 100 µM | > 100 µM | > 100 µM | > 100 µM | > 100 µM | > 100 µM | > 100 µM | > 100 µM | > 100 µM | > 100 µM | > 100 µM | > 100 µM | > 100 µM | > 100 µM |  |  |
| CC(=O)OC(C)(C)C1CC[C@]2(C)/C=C/C(C)C[C@@H](O)/C=C(\C)CC(O)C12 (stereo partly drawn) | > 100 µM | > 100 µM | > 100 µM | > 100 µM | > 100 µM |  | > 100 µM |  |  |  | > 100 µM |  |  |  |  | > 100 µM |  |  |  |  |
| C/C(CN1C(=O)c2ccccc2C1=O)=N\NS(=O)(=O)c1ccc2ccccc2c1 | > 100 µM | > 100 µM | > 100 µM | > 100 µM | > 100 µM | > 100 µM | > 100 µM |  |  |  | > 100 µM |  |  |  |  | > 100 µM |  |  |  |  |
| CC[C@@]1(OP(=O)(O)O)C(=O)OCc2c1cc1n(c2=O)Cc2cc3ccccc3nc2-1 | 5.28 µM and 9.45 µM | 70.8 µM | 9.44 µM | 3.47 µM | 0.194 µM | 3 µM and 1.88 µM | 0.747 µM | 0.0774 µM |  | 0.0249 µM | 0.866 µM and 1.97 µM |  |  |  | 0.428 µM |  | 0.0688 µM |  |  |  |
| NC1=C(O)c2cccc3cccc(c23)C1=O | > 100 µM | > 100 µM | > 100 µM | > 100 µM | > 100 µM | > 100 µM | > 100 µM |  |  |  | > 100 µM |  |  |  |  | > 100 µM |  |  |  |  |
| Cc1cc(N(CCC#N)CCC#N)ccc1/C=C(\NC(=O)/C=C/c1ccccc1)C(=O)N=[N+]=[N-] | > 100 µM | > 100 µM | > 100 µM |  | > 100 µM | > 100 µM | > 100 µM |  |  |  | > 100 µM |  |  |  |  | > 100 µM |  |  |  |  |
| N#CC(C(=O)CCCC(=O)Nc1ccccc1[N+](=O)[O-])c1c(Cl)cccc1Cl (stereo not drawn) | > 100 µM | > 100 µM | > 100 µM | > 100 µM | > 100 µM | > 100 µM | > 100 µM |  |  |  | > 100 µM |  |  |  |  | > 100 µM |  |  |  |  |
| NC(N)NCCCc1cn2c(n1)C1CCCN1C(=O)C2Cc1ccccc1 (stereo not drawn) | > 100 µM | > 100 µM | > 100 µM | > 100 µM | > 100 µM | > 100 µM | > 100 µM |  |  |  | > 100 µM |  |  |  |  | > 100 µM |  |  |  |  |
| O=S1OC(c2ccccc2)(c2ccccc2)C(c2ccccc2)(c2ccccc2)O1 | > 100 µM | > 100 µM | > 100 µM | > 100 µM | > 100 µM | > 100 µM | > 100 µM |  |  |  | > 100 µM |  |  |  |  | > 100 µM |  |  |  |  |
| COc1ccc(C2COc3c(ccc(OC)c3OC)C2=O)cc1OC (stereo not drawn) | > 100 µM | > 100 µM | > 100 µM | > 100 µM |  | > 100 µM | > 100 µM |  |  |  | > 100 µM |  |  |  |  | > 100 µM |  |  |  |  |
| COc1nc(NC2OC(COC(C)=O)C(OC(C)=O)C(OC(C)=O)C2OC(C)=O)c(N=CC=Nc2c(NC3OC(COC(C)=O)C(OC(C)=O)C(OC(C)=O)C3OC(C)=O)nc(OC)[nH]c2=O)c(=O)[nH]1 (stereo not drawn) | > 100 µM | > 100 µM | > 100 µM | > 100 µM |  | > 100 µM | > 100 µM |  |  |  | > 100 µM |  |  |  |  | > 100 µM |  |  |  |  |
| COC(=O)c1c2c(c(C)[n+]([O-])c1C)C(=O)C(NCc1ccc(OC)cc1)=CC2=O | 10.3 µM |  | 4.26 µM | 8.68 µM |  | 4.73 µM | 8.82 µM | 2.64 µM |  | 1.79 µM | 5.09 µM | 1.95 µM | 2.19 µM |  | 2.15 µM | > 100 µM | 1.95 µM | 2.57 µM | 2.31 µM | 10.4 µM |
| CCN1CCN(CCC(=O)Nc2cccc(-n3cc(-c4ccncc4)c(-c4ccc(Cl)c(OC)c4)n3)c2)CC1 | 2.43 µM |  | 1.5 µM | 1.68 µM |  | 1.19 µM | 1.76 µM | 0.663 µM |  | 0.36 µM | 1.63 µM | 0.338 µM | 0.394 µM |  | 0.381 µM | 1.22 µM | 0.275 µM | 0.484 µM | 0.448 µM | 2.02 µM |
| CC1(C)N=C(N)N=C(N)N1c1ccc(OCCCNC(=O)Nc2ccc(S(=O)(=O)F)cc2)c(Cl)c1 | > 100 µM |  | > 100 µM | > 100 µM |  | > 100 µM | > 100 µM | 0.199 µM |  | 0.504 µM | > 100 µM | 0.0778 µM | 0.504 µM |  | 0.1 µM | > 100 µM | 0.79 µM | 0.211 µM | 0.165 µM | > 73 µM |
| CC(C)(C)CC(C)(C)c1ccc(OCCO)cc1 | 27.3 µg/mL |  | 18.6 µg/mL | 18.6 µg/mL |  | 11.1 µg/mL | 19.6 µg/mL | 8.87 µg/mL |  | 1.07 µg/mL | 8.56 µg/mL | 7.73 µg/mL | 7.81 µg/mL |  | 10.6 µg/mL | 28.1 µg/mL | 1.21 µg/mL | 5.34 µg/mL | 3.26 µg/mL | 16 µg/mL |
| CCOC(=O)c1noc2c1CCc1c-2cn(Cc2ccc(OC)cc2)c1-c1cc(OC)c(OC)c(OC)c1 | > 100 µM |  | > 100 µM | > 100 µM |  | > 100 µM | > 100 µM | 8.07 µM |  | 3.02 µM | > 100 µM | 0.497 µM | 0.91 µM |  | 0.846 µM | > 100 µM | 0.369 µM | 0.542 µM | 2.9 µM | > 100 µM |
| COc1cccc2c1nc(C(F)F)n2-c1nc(-c2ccc(NS(=O)(=O)CCN(C)C)cc2)nc(N2CCOCC2)n1 | 13.3 µM |  | 6.78 µM | 12.8 µM |  | 1.26 µM | 5.09 µM | 0.157 µM |  | 0.0875 µM | 1.44 µM | 0.341 µM | 0.275 µM |  | 0.0999 µM | 4.39 µM | 0.081 µM | 0.454 µM | 0.0923 µM | 12.9 µM |
| O=C(CCc1n[nH]c(=S)o1)Nc1cc(Cl)ccc1Cl | > 100 µM | > 100 µM | 32.1 µM | > 100 µM | 36.1 µM |  | > 100 µM |  |  |  | > 100 µM |  |  |  |  | > 100 µM |  |  |  |  |
